Read-outs that look alike come from different tables or passages of the source. Each block holds one compound with its values, some of them ahead of it.
Legend:
MCR-1 = molecular target: T1, MCR-1 (Homo sapiens, UniProt Q01726); assay: Melanocortin receptor binding assay, competition with 125I-HP 467, HEK 293 cells expressing hMCR-1; conditions: for IC50: read-out: MC-1 IC50; for % Disp. MC-1 10 μM: displacement of 125I-HP 467 at 10 μM isoquinoline compound
T1 construct: expressed in transfected cells; host or cells: HEK 293
T1 sequence (Q01726 whole entry): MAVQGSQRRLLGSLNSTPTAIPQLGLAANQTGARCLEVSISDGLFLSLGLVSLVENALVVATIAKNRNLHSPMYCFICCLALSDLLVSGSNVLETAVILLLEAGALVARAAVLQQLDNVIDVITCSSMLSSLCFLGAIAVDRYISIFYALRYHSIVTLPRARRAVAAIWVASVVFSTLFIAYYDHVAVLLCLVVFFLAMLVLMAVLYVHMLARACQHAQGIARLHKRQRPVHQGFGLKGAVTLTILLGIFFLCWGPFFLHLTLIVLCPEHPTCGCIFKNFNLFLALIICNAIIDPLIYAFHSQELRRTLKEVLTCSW
In short: (§1)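 Test compounds compete on intact HEK 293 cells carrying hMCR-1 (2×10^4 per tube) or hMCR-4 (4×10^3 per tube), suspended in PBS, 10% calf serum, 1 mM CaCl2.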

MCR-4 = molecular target: T2, MCR-4 (Homo sapiens, UniProt P32245); assay: Melanocortin receptor binding assay, competition with 125I-HP 467, HEK 293 cells expressing hMCR-4; conditions: read-out: MC-4 IC50
T2 construct: expressed in transfected cells; host or cells: HEK 293
T2 sequence (P32245 whole entry): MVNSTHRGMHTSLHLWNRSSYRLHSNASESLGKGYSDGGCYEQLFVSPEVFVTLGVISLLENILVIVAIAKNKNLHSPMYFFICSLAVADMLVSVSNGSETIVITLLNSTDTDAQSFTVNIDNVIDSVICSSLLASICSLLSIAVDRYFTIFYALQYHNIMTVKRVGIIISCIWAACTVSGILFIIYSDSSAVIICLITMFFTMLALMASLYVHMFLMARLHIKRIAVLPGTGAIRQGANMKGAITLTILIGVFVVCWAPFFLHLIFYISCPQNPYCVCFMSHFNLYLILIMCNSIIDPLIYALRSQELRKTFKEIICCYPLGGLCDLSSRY
In short: as §1

[1] = TRG 2406 and TRG 2407 libraries, inhibition of binding of 125I-HP 467
[2] = inhibition of binding of 125I-HP 467, HEK 293 cells expressing MCR-1
[3] = inhibition of binding of 125I-HP 467, HEK 293 cells expressing MCR-4
[4] = TRG 2414 library, inhibition of binding of 125I-HP 467, HEK 293 cells expressing MCR-1
[5] = TRG 2414 library, inhibition of binding of 125I-HP 467, HEK 293 cells expressing MCR-4
[6] = inhibition of binding of 125I-HP 467, HEK 293 cells expressing MCR-1, TRG 2414 library
[7] = inhibition of binding of 125I-HP 467, HEK 293 cells expressing MCR-4, TRG 2414 library
[8] = TRG 2408 and TRG 2409 libraries, inhibition of 125I-HP 467 binding

IC50 (MCR-1; [2]): 0.093 µM
IC50 (MCR-4; [3]): 5.01 µM
Structure (SMILES): CCNc1ccc(C2C(CN)c3ccccc3CN2CCCC(CN)NCC2CC2CNCc2ccccc2)cc1 (stereo not shown) [TRG 2420-26]

IC50 (MCR-1; [4]): 0.419 µM
IC50 (MCR-4; [5]): 12.6 µM
Structure (SMILES): CCCOc1ccc(C2C(CNC3CCCCC3)c3ccccc3CN2CCCCC(N)CN)cc1 (stereo not shown) [Cmpd 197]

IC50 (MCR-1; TRG 2405 section, inhibition of binding of 125I-HP 467, HEK 293 cells expressing MCR-1): 2.17 µM
% Disp. MC-1 10 μM (MCR-1; first of duplicate): 76.8%
% Disp. MC-1 10 μM (MCR-1; second of duplicate): 77.7%
IC50 (MCR-4; TRG 2405 section, inhibition of binding of 125I-HP 467, HEK 293 cells expressing MCR-4): 11.6 µM
Structure (SMILES): Cn1cccc1C1C(CNC2CCCCC2)c2ccccc2CN1CCN (stereo not shown) [TRG 2405-4]

IC50 (MCR-1; [6]): 1.93 µM
IC50 (MCR-4; [7]): 1.27 µM
Structure (SMILES): NCC(N)CCCCN1Cc2ccccc2C(CNC2CCCCC2)C1c1cccc(Oc2ccccc2)c1 (stereo not shown) [TRG 2414-117]

IC50 (MCR-1; [6]): 2.74 µM
IC50 (MCR-4; [7]): 6.71 µM
Structure (SMILES): NCC(CCCCN1Cc2ccccc2C(CNC2CCCCC2)C1c1ccc(Oc2ccccc2)cc1)NCCc1ccccc1 (mixture of isomers) [TRG 2414-158]

IC50 (MCR-1; [6]): 1.96 µM
IC50 (MCR-4; [7]): 4.22 µM
Structure (SMILES): CCCOc1ccc(C2C(CNCCc3cccc(Cl)c3)c3ccccc3CN2CCCCC(N)CN)cc1 (stereo not shown) [TRG 2414-173]

IC50 (MCR-1; [2]): 0.12 µM
IC50 (MCR-4; [3]): 1.05 µM
Structure (SMILES): CCCCNc1ccc(C2C(CNCCc3ccccc3)c3ccccc3CN2CCCC(CN)NCc2ccccc2)cc1 (stereo not shown) [TRG 2411-196]

IC50 (MCR-1; [8]): 3.89 µM
IC50 (MCR-4; [8]): 27.1 µM
Structure (SMILES): CCNc1ccc(C2C(CNC3CCCCC3)c3ccccc3CN2CCC(CN)NCCNC)cc1 (stereo not shown) [TRG 2408-94]

IC50 (MCR-1; [1]): 7.07 µM
IC50 (MCR-4; [1]): 11.2 µM
Structure (SMILES): CCNc1ccc(C2C(CNc3ccccc3Cl)c3ccccc3CN2CCCCC(CN)NC)cc1 (stereo not shown) [TRG 2407-43]

MC-1 IC50 (MCR-1; [6]): no fit
IC50 (MCR-4; [7]): 54.4 µM
Structure (SMILES): CC(C)Cc1ccc(C(C)CNC(CN)CCCCN2Cc3ccccc3C(CNC3CCCCCC3)C2c2cc(C(F)(F)F)cc(C(F)(F)F)c2)cc1 (stereo not shown) [TRG 2414-76]

IC50 (MCR-1; [2]): 1.83 µM
IC50 (MCR-4; [3]): 0.87 µM
Structure (SMILES): CCc1ccc(C2C(CN)c3ccccc3CN2CCCC(CN)NCCC2CCCCC2)cc1 (stereo not shown) [TRG 2415-13]

IC50 (MCR-1; [2]): 0.05 µM
IC50 (MCR-4; [3]): 7.77 µM
Structure (SMILES): CCNc1ccc(C2C(CN)c3ccccc3CN2CCC[C@@H](CN)NCCCCOc2ccccc2)cc1 (stereo partly shown) [2424#2]

IC50 (MCR-1; competition with 125I-HP 467, HEK 293 cells expressing MCR-1): 0.17 µM
IC50 (MCR-4; competition with 125I-HP 467, HEK 293 cells expressing MCR-4): 1.83 µM
Structure (SMILES): CCCCNc1ccc(C2C(CNCCc3ccccc3)c3ccccc3CN2CCCCC(CN)NCc2ccccc2)cc1 (stereo not shown) [TRG 2411-80]

More lines, now with the values behind:

Structure (SMILES): CNC(CN)CCCCN1Cc2ccccc2C(CNc2ccccc2Cl)C1c1ccc(Cl)cc1Cl (stereo not shown) [TRG 2407-3]
IC50 (MCR-1; [1]): 8.46 µM
IC50 (MCR-4; [1]): 9.45 µM

Structure (SMILES): COc1ccccc1CCNCC1c2ccccc2CN(CCCCC(CN)NCC(C)c2ccc(CC(C)C)cc2)C1c1ccc(Cl)cc1Cl (stereo not shown) [TRG 2414-12]
IC50 (MCR-1; [6]): 11.7 µM
IC50 (MCR-4; [7]): 34.5 µM

Structure (SMILES): COc1ccccc1CCNCC1c2ccccc2CN(CCCCC(CN)NCc2ccccc2)C1c1ccc(Oc2ccccc2)cc1 (stereo not shown) [TRG 2414-131]
IC50 (MCR-1; [6]): 1.65 µM
IC50 (MCR-4; [7]): 14.6 µM

Structure (SMILES): NCC(N)CCCCN1Cc2ccccc2C(CNCCc2cccc(Cl)c2)C1c1ccccc1Br (stereo not shown) [Cmpd 213]
IC50 (MCR-1; [4]): 6.48 µM
IC50 (MCR-4; [5]): 2.06 µM

Structure (SMILES): CNC(CN)CCCCN1Cc2ccccc2C(CNCCc2ccccc2Cl)C1c1ccc(Cl)cc1Cl (mixture of isomers) [TRG 2407-22]
IC50 (MCR-1; [1]): 1.34 µM
IC50 (MCR-4; [1]): 0.69 µM

Structure (SMILES): NCC(CCCCN1Cc2ccccc2C(CNCCc2cccc(Cl)c2)C1c1ccc(Cl)cc1Cl)NCCc1ccccc1 (stereo not shown) [TRG 2414-14]
IC50 (MCR-1; [6]): 3.23 µM
IC50 (MCR-4; [7]): 2.92 µM

Structure (SMILES): NCC(CCCCN1Cc2ccccc2C(CNCCc2ccccc2)C1c1cc(C(F)(F)F)cc(C(F)(F)F)c1)NCc1ccccc1 (stereo not shown) [TRG 2421-1]
IC50 (MCR-1; [2]): 4.18 µM
IC50 (MCR-4; [3]): 1.78 µM

Structure (SMILES): COc1ccc(CNC(CN)CCCCN2Cc3ccccc3C(CNCCc3ccc(Oc4ccccc4)cc3)C2c2cc(C(F)(F)F)cc(C(F)(F)F)c2)cc1 (stereo not shown) [TRG 2421-29]
IC50 (MCR-1; [2]): 5.1 µM
IC50 (MCR-4; [3]): 7.92 µM

Structure (SMILES): CCCOc1ccc(C2C(CNCc3ccccc3)c3ccccc3CN2CCCCC(CN)NCCc2ccccc2)cc1 (stereo not shown) [Cmpd 190]
IC50 (MCR-1; [4]): 1.44 µM
IC50 (MCR-4; [5]): 5.42 µM

Structure (SMILES): COc1ccc(CNCC2c3ccccc3CN(CCCCC(CN)NCC(C)c3ccc(CC(C)C)cc3)C2c2ccccc2Br)cc1 (stereo not shown) [Cmpd 224]
IC50 (MCR-1; [4]): 31.5 µM
IC50 (MCR-4; [5]): 22.7 µM

Structure (SMILES): NCC(N)CCCCN1Cc2ccccc2C(CNCCc2cccc(Cl)c2)C1c1ccc(Oc2ccccc2)cc1 (stereo not shown) [TRG 2414-133]
IC50 (MCR-1; [6]): 5.8 µM
IC50 (MCR-4; [7]): 15.9 µM

Structure (SMILES): CNC(CN)CCCCN1Cc2ccccc2C(CNCc2ccccc2OC)C1c1ccc(Cl)cc1Cl (mixture of isomers) [TRG 2407-14]
IC50 (MCR-1; [1]): 0.37 µM
IC50 (MCR-4; [1]): 0.41 µM

Reference: US6608082B1, “Treatment of erectile dysfunction using isoquinoline compound melanocortin receptor ligands” (Lion Bioscience AG, priority 1998, dated 2003)
